Structures can show the parent of a compound that is named as a salt.

The IC50 is the point on the concentration scale where inhibition reaches its midpoint. Lower therefore signals greater potency in that assay.

This test addresses Human Inducible Nitric Oxide Synthase (Homo sapiens, UniProt P35228). The experiment in a line: Inhibition of human inducible nitric oxide synthase (formation of L-[2,3,4,5-3H]citrulline from L-[2,3,4,5-3H]arginine). Conditions: 1 μM L-Arg, pH 7.5, room temperature, 30 minutes, aqueous DMSO (max. 5%). The format is biochemical. An excerpt: 26, pp. 258-264. […] J Lowenstein and S. H. Snyder in Methods in Enzymology, Vol. 233, L. Packer, ed., Academic Press, NY, 1994, Ch. 26, pp. 264-269. Various assays for NOS activity have been reported in the literature and are reviewed in the following: M. E. Murphy and E. Noack in Methods in Enzymology, Vol. 233, L. Packer, ed., Academic Press, NY, 1994, Ch. 26, pp. 240-250 and J. M. Hevel and M. A. Marletta in Methods in Enzymology, Vol. 233, L. Packer, ed., Academic Press, NY, 1994, Ch. 26, pp. 250-258. Details for the assay protocols to measure NOS activity are as follows: […] The incubation buffer (100 μL) contained; 100 mM TES, pH 7.5, 5 μM FAD, 5 μM FMN, 10 μM BH4, 0.5 mM NADPH, 0.5 mM DTT, 0.5 mg/mL BSA, 2 mM CaCl2, 10 μg/mL calmodulin (bovine), 1 μM L-Arg, 0.2 μCi L-[2,3,4,5-^3 H]Arg, and the inhibitor in aqueous DMSO (max. 5%). The reaction is initiated by addition of enzyme. Incubations are performed at room temperature for 30 minutes and stopped by the addition of an equal volume of quenching buffer consisting of 200 mM sodium citrate, pH 2.2, 0.02% sodium azide. Reaction products are separated by passing through a cation exchange resin and quantitated as cpm by scintillation counting. Percent inhibition is calculated relative to enzyme incubated without inhibitor according to: […]. Illustrative of the utility of the compounds of Formula I is the ability of such compounds to inhibit NO synthase as shown in Table 1 and as measured by the assay described above: […]
In turn, `N=C(N)NC[C@@H]1CN[C@H](C(=O)O)C1` [compound 1, (4S)-4-(Guanidinomethyl)-L-Proline Dihydrochloride] displayed a 50% inhibitory concentration (IC50) of 7.1 µM.
On to `N=C(N)NC[C@H]1CN[C@H](C(=O)O)C1` [compound 2, (4R)-4-(Guanidinomethyl)-L-Proline Dihydrochloride], for which half-maximal inhibition (IC50) required 3.5 µM.
As to `N=C(N)N[C@@H]1CN[C@H](C(=O)O)C1` [compound 3, (4S)-4-Guanidino-L-Proline Dihydrochloride], the IC50 came to 2.7 µM.
Next, `COC(=O)[C@@H]1C[C@@H](CNC(=N)N)CN1` [compound 6, (4R)-4-(Guanidinomethyl)-L-Proline Methyl Ester Dihydrochloride]: 11 µM; `N=C(N)SC[C@@H]1CN[C@H](C(=O)O)C1` [compound 5, (4S)-4-[(Isothioureido)methyl]-L-Proline Dihydrochloride]: 111 µM.
